Test results taken from US12459954B2, “Crystalline form a of GLP-1 receptor agonist and preparation method therefor” (Hangzhou Zhongmei Huadong Pharmaceutical Co., Ltd., priority 2020, dated 2025).
Counter-ions that a name gives are not always drawn. One block for each compound: values may come before it.

What was measured:
Assay type in all cases: physicochemical
[1] = Study of stability: crystal form stability by detecting the change of crystal form by XRPD
Protocol: X-ray powder dfraction (XRPD): Empyren; test conditions: power 40 kV×250 mA, CuKα radiation; scanning range 3˜40° (2θ); step width 0.02°; scanning speed 5/min; scanning method: continuous scanning.
(§1) The crystal form A of OAD2 was subject to a stability study. The crystal form A was tested stability in H2O, SGF (simulated gastric fluid), FeSSIF (simulated intestinal fluid in the feeding state) and FaSSIF (simulated intestinal fluid in the fasting state). The chemical stability was expressed in the HPLC purity. The crystal form stability was expressed by detecting the change of crystal form by XPRD.

[2] = Hygroscopic weight increment on placement (water absorption); conditions: for weight increase from absorption of water: after 5 days under certain (experimental) / similar conditions
[3] = Study of stability: chemical stability expressed in the HPLC purity
Protocol: as §1

[4] = as above; conditions: dihydrochloride
[5] = Placed at room temperature and room humidity, 28 d
[6] = Room temperature and room humidity ± 25° C./60% RH, 28 d + 7 d

- Change of crystal form ([1]; 25° C./75 ± 5% RH, 7 d): no
- Change of crystal form ([1]; High temperature 60° C., 5 d): no
- Change of crystal form ([1]; Initial, 0 d): no
- Change of crystal form [1, 5]: no
- Change of crystal form [1, 6]: no
- Change of crystal form ([1]; Successively suspended in SGF/FeSSIF/FaSSIF/water, 1 d): no
- change of crystal form (overall finding) ([1]; under various conditions): did not change the crystal form
- weight increase from absorption of water ([2]; listed as OAD2 crystalline Form A): did not gain weight
- weight increase from absorption of water ([2]; listed as crystal form A of OAD2): no measurable amount weight increase
- moisture absorption (in words) ([2]; listed as crystal form A of the free base): not easy to absorb moisture
- HPLC purity (area %) ([3]; 25° C./75 ± 5% RH, 7 d): 98.90 area %
- HPLC purity (area %) ([3]; High temperature 60° C., 5 d, listed as Crystal form A (2#)): 98.12 area %
- HPLC purity (area %) ([3]; Initial, 0 d, listed as Crystal form A (1#)): 98.88 area %
- HPLC purity (area %) ([3]; Initial, 0 d, listed as Crystal form A (2#)): 98.13 area %
- HPLC purity (area %) [3, 5]: 98.69 area %
- HPLC purity (area %) [3, 6]: 98.67 area %
- chemical stability (overall finding) ([3]; overall result of Table 3): good chemical stability
SMILES: CC[C@@H](c1ccccc1)N1Cc2cc3c(cc2C[C@H]1C(=O)N[C@@H](Cc1ccc(-c2ccnc(C)c2C)cc1)C(=O)O)OC[C@H](c1ccc(OCc2ccc(Cl)c(Cl)c2)cc1)O3 [Crystal form A, (S)-2-(3S,8S)-3-(4-(3,4-dichlorobenzyloxy)phenyl-7-((S)-1-phenylpropyl)-2,3,6,7,8,9-hexahydro-[1,4]-dioxino[2,3-g]isoquinolin-8-ylformylamino)-3-(4-(2,3-dimethylpyridin-4-yl)phenyl)propionic acid]

- HPLC purity (area %) ([4]; High temperature 60° C., 5 d): 98.70 area %
- HPLC purity (area %) ([4]; Initial, 0 d): 99.03 area %
- weight increase from absorption of water ([2]; dihydrochloride): 8.3%
- weight increase from absorption of water ([2]; listed as OAD2 dihydrochloride salt, dihydrochloride): 8.3%
- moisture absorption (in words) ([2]; listed as dihydrochloride salt of OAD2, dihydrochloride): absorbs moisture
- HPLC purity (area %) ([3]; 25°C/75+5% RH, 5 d): 99.07 area %
SMILES: CC[C@@H](c1ccccc1)N1Cc2cc3c(cc2C[C@H]1C(=O)N[C@@H](Cc1ccc(-c2ccnc(C)c2C)cc1)C(=O)O)OC[C@H](c1ccc(OCc2ccc(Cl)c(Cl)c2)cc1)O3 [OAD2 dihydrochloride, (S)-2-(3S,8S)-3-(4-(3,4-dichlorobenzyloxy)phenyl-7-((S)-1-phenylpropyl)-2,3,6,7,8,9-hexahydro-[1,4]-dioxino[2,3-g]isoquinolin-8-ylformylamino)-3-(4-(2,3-dimethylpyridin-4-yl)phenyl)propionic acid dihydrochloride, reference compound]
